In patent publication US12570612B2, “Substituted nitrogen heterocyclic compound and anesthetic effect thereof” (priority 2019, dated 2026):
“Also recorded” adds a separate entry of the source. Where two headings read alike, the source gives them in different places.

Legend:
Sprague-Dawley rats [1] = test: Pharmacological effect and adverse reactions under the equivalent dose (2ED50), Group C compounds; format: in vivo; conditions: for Righting reflex duration / Sedation duration / Onset time: 2ED50, tail vein, rats, n=8; for Adverse reaction: Convulsions / Adverse reaction: Cough, broken-winded / Adverse reaction: Euphoria / Adverse reaction: Red urine / Adverse reaction: Slower breathing, Tetany convulsion / Adverse reaction: Systemic stiffness, Convulsions, Opisthotonus / Adverse reaction: Tongue stretching / Adverse reaction: Tremor / Adverse reaction: the four limbs rigidity: equivalent dose (2ED50), number of rats of n = 8
Source text: Evaluation index: onset time: from the completion of drug injection to the disappearance of forepaw righting reflex in rats; Duration of anesthesia: the time from the disappearance of rat forepaw righting reflex to the recovery of rat forepaw righting reflex; Recovery time of anesthesia: the time from the […] to complete recovery;

Sprague-Dawley rats [2] = test: animal or person; format: in vivo; conditions: rats; for ED50: Rattus norvegicus, LORR, up and down method, tail vein, class symbols, read-out: ED50
Source text: Evaluating indicator: The end point of anesthesia: LORR was used as the end point of anesthesia; General anesthesia effect: the disappearance of forepaw righting reflex in rats lasting for 30 seconds is taken as the index of general anesthesia effect; Anesthesia recovery index: the recovery of rat forepaw righting reflex was used as the index of anesthesia recovery.

Sprague-Dawley rats [3] = format: in vivo; conditions: tail vein
Sprague-Dawley rats [4] = conditions: for Recovery time after stopping infusion: LORR maintained for 1 hour; for Recovery time after stopping infusion / Onset time: 2 times the MIR; for Onset time / Types and incidence of adverse reactions: continuous infusion; for Types and incidence of adverse reactions: (animals affected/animals)
Procedure: Adult male Sprague-Dawley rats with body weight ranging from 250 to 300 gm were selected for continuous infusion test. […] Time to recovery of righting reflex from stopping infusion, and time to fully awake from stopping infusion were recorded.

H295R cell line = test: Adrenocortical function in vitro test: secretion of cortisol and corticosterone, Group A compounds; format: cell-based; conditions: H295 cells; for EC50: Homo sapiens, 0.1-10000 nM, HPLC-MS/MS
Sprague-Dawley rats [5] = test: Pharmacological characteristics at equivalent doses (2ED50), Group A compounds; format: in vivo; conditions: 2ED50, tail vein; for Types and incidence of adverse reactions: (animals affected/animals)
Sprague-Dawley rats [6] = test: animal or person; conditions: for ED50: Rattus norvegicus; for Approximate therapeutic index / Minimal lethal dose: rats
Procedure: Adult male Sprague-Dawley rats (250-300 g) were selected for the experiment. […] The anesthesia effects of the compounds were assessed in rats using a LORR assay and a period >30 s was considered as an indicator of general anesthesia.

[7] = read-out: EC50 (Corticosterone)

| Structure (SMILES) | Righting reflex duration (Sprague-Dawley rats [1]) [min] | Sedation duration (Sprague-Dawley rats [1]) [min] | Onset time (Sprague-Dawley rats [1]; unit s) [s] | Adverse reaction: Convulsions (Sprague-Dawley rats [1]) | Adverse reaction: Cough, broken-winded (Sprague-Dawley rats [1]) | Adverse reaction: Euphoria (Sprague-Dawley rats [1]) | Adverse reaction: Red urine (Sprague-Dawley rats [1]) | Adverse reaction: Slower breathing, Tetany convulsion (Sprague-Dawley rats [1]) | Adverse reaction: Systemic stiffness, Convulsions, Opisthotonus (Sprague-Dawley rats [1]) | Adverse reaction: Tongue stretching (Sprague-Dawley rats [1]) | Adverse reaction: Tremor (Sprague-Dawley rats [1]) | Adverse reaction: the four limbs rigidity (Sprague-Dawley rats [1]) | Approximate therapeutic index (Sprague-Dawley rats [2]) | Minimal lethal dose (Sprague-Dawley rats [3]) [mg/kg] | ED50 (Sprague-Dawley rats [2]) [mg/kg] | other results |
| --- | --- | --- | --- | --- | --- | --- | --- | --- | --- | --- | --- | --- | --- | --- | --- | --- |
| C[C@H](c1ccccc1)n1cncc1C(=O)COC1CCC1 [Compound C28] | 1.91 ± 0.65 | 5.63 ± 0.62 | <30 | 0 | 0 | 0 | 8 | 0 | 0 | 0 | 1 | 0 | >2.4 | >11.8 |  |  |
| C#CCOCC(=O)c1cncn1[C@H](C)c1ccccc1 [Compound C35] | 2.26 ± 0.81 | 4.89 ± 0.98 | <30 | 0 | 0 | 0 | 8 | 0 | 7 | 1 | 0 | 0 | >12.9 | >10.3 | 0.5 to 1 |  |
| C/C=C\C(=O)c1cncn1[C@H](C)c1ccccc1 [Compound C55] | 1.83 ± 0.30 | 6.26 ± 2.45 | <30 | 0 | 0 | 0 | 8 | 0 | 7 | 0 | 0 | 0 | >16.6 | >13.61 | 2 to 10 |  |
| C#CCOCC(=O)c1c(F)ncn1[C@H](C)c1ccccc1 [Compound C73] | 1.24 ± 0.56 | 6.76 ± 1.49 | <30 | 0 | 0 | 0 | 8 | 0 | 2 | 0 | 0 | 1 | >23.4 | >4.0 | 0.04 to 0.5 |  |
| CCOCC(=O)c1c(F)ncn1[C@H](C)c1ccccc1 [Compound C72] | 1.29 ± 0.64 | 5.70 ± 1.51 |  | 0 | 0 | 0 | 8 | 0 | 0 | 0 | 0 | 0 | >27.7 | >8.9 | 0.04 to 0.5 | Onset time (Sprague-Dawley rats [1]; unit min): <60 s |
| C=C=CC(C)(C)OC(=O)c1ccnn1[C@H](C)c1ccccc1 [Compound A14] |  |  |  |  |  |  |  |  |  |  |  |  |  |  |  | Recovery time after stopping infusion (Sprague-Dawley rats [4]): 10 to 14 min; Onset time (Sprague-Dawley rats [4]): 6 to 7 min; Types and incidence of adverse reactions (Sprague-Dawley rats [4]): Tremor(1/6),; Corticosterone as an indicator to determine the presence of inhibition (H295R cell line): 0; Cortisol as an indicator to determine the presence of inhibition (H295R cell line): 0; EC50 (H295R cell line; [7]): > 1000 nM; EC50 (H295R cell line; read-out: EC50 (Cortisol)): > 1000 nM; Onset time (Sprague-Dawley rats [5]): 0.78 ± 0.22 min; Righting reflex duration (Sprague-Dawley rats [5]): 1.20 ± 0.72 min; Types and incidence of adverse reactions (Sprague-Dawley rats [5]): Red urine(5/5), Four limbs; also recorded: Tremor(1/5); ED50 (Sprague-Dawley rats [6]): 1 to 2 mg/kg; Approximate therapeutic index (Sprague-Dawley rats [6]): >8; Minimal lethal dose (Sprague-Dawley rats [6]): >11 mg/kg |
| C=C=CC1(OC(=O)c2cc(F)nn2[C@H](C)c2ccccc2)COC1 [Compound A52] |  |  |  |  |  |  |  |  |  |  |  |  |  |  |  | Recovery time after stopping infusion (Sprague-Dawley rats [4]): 13 to 18 min; Onset time (Sprague-Dawley rats [4]): 5 to 6 min; Types and incidence of adverse reactions (Sprague-Dawley rats [4]): Tongue stretching(4/6),; also recorded: Tremor(4/6); Corticosterone as an indicator to determine the presence of inhibition (H295R cell line): 0; Cortisol as an indicator to determine the presence of inhibition (H295R cell line): 0; EC50 (H295R cell line; [7]): > 1000 nM; EC50 (H295R cell line; read-out: EC50 (Cortisol)): > 1000 nM; Onset time (Sprague-Dawley rats [5]): 0.50 ± 0.08 min; Righting reflex duration (Sprague-Dawley rats [5]): 2.01 ± 1.00 min; Types and incidence of adverse reactions (Sprague-Dawley rats [5]): Red and urine(8/8), Euphoria(3/8), and broken-winded(1/8); ED50 (Sprague-Dawley rats [6]): 0.5 to 1 mg/kg; Approximate therapeutic index (Sprague-Dawley rats [6]): >16; Minimal lethal dose (Sprague-Dawley rats [6]): >11 mg/kg |
